Values of other authors in US20240423197A1, “KIT FOR PREPARING HERBICIDAL APPLICATION MIXTURES” (BAYER CROPSCIENCE LP, priority 2021, published 2024).

Conditions: known HLB value predetermined based on estimation by Griffin's method

Row | HLB | Substance
1 | 4.3 | Sorbitan monooleate [Span® 80]
2 | 15 | Polysorbate 80 (polyoxyethylene sorbitan monooleate) [Tween® 80]
